Results from ChEMBL document CHEMBL1201862, “PubChem BioAssay data set” (2004).
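Five concentrations, 48 hours, 96-well plates. Here, GI50 denotes the concentration required for 50% inhibition of growth.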 The source made the active and inactive calls. Cut-off read from the data, not from the text of the source: active = GI50 up to about 1.1 µM and inactive = higher.

What was measured:
Test in all cases: growth of human tumour cells (NCI), 48 h
786-0 = test system: 786-0
A498 = test system: A498
A549 = test system: A549
ACHN = test system: ACHN
CAKI-1 = test system: CAKI-1
CCRF-CEM = test system: CCRF-CEM
COLO 205 = test system: COLO 205
DU-145 = test system: DU-145
EKVX = test system: EKVX
HCC 2998 = test system: HCC 2998
HCT-116 = test system: HCT-116
HCT-15 = test system: HCT-15
HL-60 = test system: HL-60
HOP-62 = test system: HOP-62
HT-29 = test system: HT-29
Hs-578T = test system: Hs-578T
IGROV-1 = test system: IGROV-1
K562 = test system: K562
KM12 = test system: KM12
LOX IMVI = test system: LOX IMVI
M14 = test system: M14
MCF7 = test system: MCF7
MDA-MB-231 = test system: MDA-MB-231
MDA-MB-435 = test system: MDA-MB-435
MDA-N = test system: MDA-N
MOLT-4 = test system: MOLT-4
Malme-3M = test system: Malme-3M
NCI-H226 = test system: NCI-H226
NCI-H23 = test system: NCI-H23
NCI-H460 = test system: NCI-H460
NCI-H522 = test system: NCI-H522
NCI/ADR-RES = test system: NCI/ADR-RES
OVCAR-3 = test system: OVCAR-3
OVCAR-4 = test system: OVCAR-4
OVCAR-8 = test system: OVCAR-8
PC-3 = test system: PC-3
RPMI-8226 = test system: RPMI-8226
RXF 393 = test system: RXF 393
SF-268 = test system: SF-268
SF-295 = test system: SF-295
SF-539 = test system: SF-539
SK-MEL-28 = test system: SK-MEL-28
SK-MEL-2 = test system: SK-MEL-2
SK-MEL-5 = test system: SK-MEL-5
SK-OV-3 = test system: SK-OV-3
SN12C = test system: SN12C
SNB-19 = test system: SNB-19
SNB-75 = test system: SNB-75
SR = test system: SR
SW-620 = test system: SW-620
T47D = test system: T47D
TK-10 = test system: TK-10
U-251 = test system: U-251
UACC-257 = test system: UACC-257
UACC-62 = test system: UACC-62
UO-31 = test system: UO-31

OC(CC(O)(C(F)(F)F)C(F)(F)F)C(O)c1ccco1 (stereo unspecified)
GI50 (786-0): > 10 µM (inactive)
GI50 (A498): 0.22 µM (active)
GI50 (A549): > 10 µM (inactive)
GI50 (ACHN): > 10 µM (inactive)
GI50 (CAKI-1): > 10 µM (inactive)
GI50 (CCRF-CEM): > 10 µM (inactive)
GI50 (COLO 205): > 10 µM (inactive)
GI50 (DU-145): > 10 µM (inactive)
GI50 (EKVX): > 10 µM (inactive)
GI50 (HCC 2998): > 10 µM (inactive)
GI50 (HCT-116): > 10 µM (inactive)
GI50 (HCT-15): > 10 µM
GI50 (HL-60): > 10 µM (inactive)
GI50 (HOP-62): > 10 µM (inactive)
GI50 (HT-29): > 10 µM (inactive)
GI50 (Hs-578T): > 10 µM (inactive)
GI50 (IGROV-1): > 10 µM (inactive)
GI50 (K562): > 10 µM (inactive)
GI50 (KM12): > 10 µM (inactive)
GI50 (LOX IMVI): > 10 µM (inactive)
GI50 (M14): > 10 µM (inactive)
GI50 (MCF7): > 10 µM (inactive)
GI50 (MDA-MB-231): > 10 µM (inactive)
GI50 (MDA-MB-435): > 10 µM (inactive)
GI50 (MDA-N): > 10 µM (inactive)
GI50 (MOLT-4): > 10 µM (inactive)
GI50 (Malme-3M): > 10 µM (inactive)
GI50 (NCI-H226): > 10 µM (inactive)
GI50 (NCI-H23): > 10 µM (inactive)
GI50 (NCI-H460): > 10 µM (inactive)
GI50 (NCI-H522): > 10 µM (inactive)
GI50 (NCI/ADR-RES): > 10 µM (inactive)
GI50 (OVCAR-3): > 10 µM (inactive)
GI50 (OVCAR-4): > 10 µM (inactive)
GI50 (OVCAR-8): > 10 µM (inactive)
GI50 (PC-3): > 10 µM (inactive)
GI50 (RPMI-8226): > 10 µM (inactive)
GI50 (RXF 393): > 10 µM (inactive)
GI50 (SF-268): > 10 µM (inactive)
GI50 (SF-295): > 10 µM (inactive)
GI50 (SF-539): > 10 µM (inactive)
GI50 (SK-MEL-28): > 10 µM (inactive)
GI50 (SK-MEL-2): > 10 µM (inactive)
GI50 (SK-MEL-5): > 10 µM (inactive)
GI50 (SK-OV-3): > 10 µM (inactive)
GI50 (SN12C): > 10 µM (inactive)
GI50 (SNB-19): > 10 µM (inactive)
GI50 (SNB-75): > 10 µM (inactive)
GI50 (SR): > 10 µM (inactive)
GI50 (SW-620): > 10 µM (inactive)
GI50 (T47D): > 10 µM (inactive)
GI50 (TK-10): > 10 µM (inactive)
GI50 (U-251): > 10 µM (inactive)
GI50 (UACC-257): > 10 µM (inactive)
GI50 (UACC-62): > 10 µM (inactive)
GI50 (UO-31): > 10 µM (inactive)
